# In PMC10606151, “The Functional Characteristics and Soluble Expression of Saffron CsCCD2” (International Journal of Molecular Sciences, 2023):
# Legend:
# CsCCD2 (TRX-CsCCD2) [1] = target: T1, CsCCD2 (TRX-CsCCD2) (Crocus sativus, UniProt A0A075W695); experiment: in vivo cleavage in zeaxanthin-producing E. coli, UPLC and UPLC-MS/MS of crocetin dialdehyde; type: cell-based; details: E. coli BL21(DE3) with pACCAR25ΔcrtX, 0.3 mM IPTG, 16 °C, 24 h; product crocetin dialdehyde
# T1 construct: gene CCD2; CsCCD2 in pET32a, N-terminal TrxA-6xHis-thrombin-S tag fusion, tags kept; synthetic gene with synonymous G1179T; E. coli BL21(DE3) accumulating carotenoids
# CsCCD2 (TRX-CsCCD2) [2] = target: T1, CsCCD2 (TRX-CsCCD2); experiment: in vivo cleavage in β-carotene-producing E. coli, UPLC and UPLC-MS/MS of crocetin dialdehyde; type: cell-based; details: E. coli BL21(DE3) with pACCAR16Δcrt, 0.3 mM IPTG, 16 °C, 24 h; product named crocetin dialdehyde
# T1 sequence (A0A075W695 entry or part of it): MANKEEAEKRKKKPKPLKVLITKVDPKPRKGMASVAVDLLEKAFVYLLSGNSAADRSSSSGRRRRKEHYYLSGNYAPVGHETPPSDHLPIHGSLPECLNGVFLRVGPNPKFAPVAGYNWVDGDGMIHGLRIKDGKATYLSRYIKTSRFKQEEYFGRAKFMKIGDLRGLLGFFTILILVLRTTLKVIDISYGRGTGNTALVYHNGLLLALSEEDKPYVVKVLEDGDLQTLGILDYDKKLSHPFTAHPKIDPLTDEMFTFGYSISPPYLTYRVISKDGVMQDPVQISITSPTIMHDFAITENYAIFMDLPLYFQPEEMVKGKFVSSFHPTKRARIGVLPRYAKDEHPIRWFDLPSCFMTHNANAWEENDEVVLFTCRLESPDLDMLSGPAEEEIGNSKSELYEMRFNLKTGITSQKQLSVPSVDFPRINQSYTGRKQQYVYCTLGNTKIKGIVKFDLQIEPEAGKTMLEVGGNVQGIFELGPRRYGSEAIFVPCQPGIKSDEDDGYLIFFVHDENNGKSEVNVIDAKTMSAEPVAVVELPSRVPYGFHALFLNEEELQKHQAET
smiles,measurement,setting,value
CC1=C(/C=C/C(C)=C/C=C/C(C)=C/C=C/C=C(C)/C=C/C=C(C)/C=C/C2=C(C)C[C@@H](O)CC2(C)C)C(C)(C)C[C@H](O)C1 [zeaxanthin],"in vivo cleavage in zeaxanthin-producing E. coli, UPLC and UPLC-MS/MS of croceti",CsCCD2 (TRX-CsCCD2) [1],"These results revealed that TRX-CsCCD2 cleaved zeaxanthin, β-carotene, and lycopene"
CC1=C(/C=C/C(C)=C/C=C/C(C)=C/C=C/C=C(C)/C=C/C=C(C)/C=C/C2=C(C)CCCC2(C)C)C(C)(C)CCC1 [β-carotene],"in vivo cleavage in β-carotene-producing E. coli, UPLC and UPLC-MS/MS of croceti",CsCCD2 (TRX-CsCCD2) [2],"These results revealed that TRX-CsCCD2 cleaved zeaxanthin, β-carotene, and lycopene"
